Laboratory results as given in US9993001B2, “Herbicidal composition” (ISHIHARA SANGYO KAISHA, LTD., priority 2014, dated 2018).

How the values were obtained:
Type in all cases: in vivo
[1] = system: redroot pigweed (Amaranthus retroflexus L.); experiment: Test Example 9: corn field, soil treatment, metobromuron + S-metolachlor; conditions: soil, read-out: Growth inhibition rate of redroot pigweed (%) Measured value
Source text: (§1) When the herbicidal activity in a case where two active ingredients are combined, is larger than the simple sum of the respective herbicidal activities of the two active ingredients (the expected activity), it is called a synergistic effect. The activity expected by the combination of two active ingredients can be calculated as follows (Colby S. R., “Weed”, vol. 15, p. 20-22, 1967). E=α+β−(α×β[…]) where α: growth inhibition rate when treated with x (g/ha) of herbicide X, • β: growth inhibition rate when treated with y (g/ha) of herbicide Y, • E: growth inhibition rate expected when treated with x (g/ha) of herbicide X and y (g/ha) of herbicide Y.
(§2) On the 19th day after treatment, the state of growth of barnyardgrass was visually observed and evaluated in accordance with the following standards. The growth inhibition rate (%) [measured value] and the growth inhibition rate (%) [calculated value] calculated by the Colby's method, are shown in Table 2.
(§3) Growth inhibition rate (%)=inhibition rate) (%) of 0 (equivalent to the non-treated area) to 100 (complete kill) […]
On the 49th day after treatment, the state of growth of redroot pigweed (Amaranthus retroflexus L.) which occurred naturally, was visually observed and evaluated in the same manner as in Test Example 1.

[2] = system: polygonaceae weeds; experiment: Test Example 10: corn field, soil treatment, metobromuron + pendimethalin; conditions: soil, read-out: Growth inhibition rate of Polygonaceae weeds (%) Measured value
Source text: as §1, §2, §3
On the 49th day after treatment, the state of growth of polygonaceae weeds which occurred naturally, was visually observed and evaluated in the same manner as in Test Example 1, The results are shown in Table 11.

[3] = system: velvetleaf (Abutilon theophrasti MEDIC.); experiment: Test Example 13: pot, soil treatment, metobromuron + pyroxasulfone; conditions: soil, read-out: Growth inhibition rate of velvetleaf (%) Measured value
Source text: as §1, §2
(§4) Growth inhibition rate (%)=inhibition rate) (%) of 0 (equivalent to the non-treated area) to 100 (complete kill)
Soil was put into a 1/300,000 ha pot, and seeds of velvetleaf (Abutilon theophrasti MEDIC.) were sown. Prior to germination of velvetleaf, predetermined amounts of SC containing metobromuron as active ingredient (same as in Test Example 1) and WG containing pyroxasulfone as active ingredient (trade name: Sakura 850 WG, manufactured by Bayer CropScience) were diluted with water corresponding to 1,000 L per hectare and applied for soil treatment.
On the 12th day after treatment, the state of growth of velvetleaf was visually observed and evaluated in the same manner as in Test Example 1.

[4] = system: large crabgrass (Diqitaria sanquinalis L.); experiment: Test Example 22: pot, soil treatment, metobromuron + prometryn; conditions: Digitaria sanguinalis, soil, read-out: Growth inhibition rate of large crabgrass (%) Measured value
Source text: as §1, §2, §4
Soil was put into a 1/300,000 ha pot, and seeds of barnyardgrass (Echinochloa crus-qalli L.) were sown. On the day after seeding, predetermined amounts of SC containing metobromuron as active ingredient (same as in Test Example 1) and WP containing prometryn as active ingredient (trade name: Gesagard 50, manufactured by Nippon Kayaku Co., Ltd.) were diluted with water corresponding to 1,000 L per hectare and applied for soil treatment.
On the 21st day after treatment, the state of growth of barnyardgrass was visually observed and evaluated in the same manner as in Test Example 1.
The test was carried out in the same manner as in Test Example 21 except that barnyardgrass (Echinochloa crus-qalli L.) was changed to large crabgrass (Diqitaria sanquinalis L.), to obtain the results as shown in Table 23.

Compound `CON(C)C(=O)Nc1ccc(Br)cc1` [Metobromuron, 3-(4-bromophenyl)-1-methoxy-1-methylurea] has an inhibition at 1000 g/ha [1] of 25%, an inhibition at 1000 g/ha [2] of 30% and an inhibition at 375 g/ha [3] of 28%. For the same compound, the inhibition at 750 g/ha [3] was 55%, the inhibition at 1500 g/ha [3] was 74% and the inhibition at 750 g/ha [4] was 33%. It also gave an inhibition at 1000 g/ha [4] of 50%.
